Assay results from publication PMC10789121, “Amine Basicity of Quinoline ATP Synthase Inhibitors Drives Antibacterial Activity against Pseudomonas aeruginosa” (ACS Medicinal Chemistry Letters, 2023).
In brackets after ≈: the same amount, converted by molar mass. Several values for one entry are separate records, joined by “and”; a condition that tells them apart may be missing. Equal values may be shown once. Read-outs that look alike come from different tables or passages of the source.

Experiments:
[1] = system: BAA 2110 (MDRPA clinical isolate); design: method as in PMID 37922420; conditions: cited from earlier work
[2] = system: BAA 2109 (MDRPA clinical isolate); design: method as in PMID 37922420; conditions: cited from earlier work
PA ATP synthase [3] = biological target: T1, PA ATP synthase (Pseudomonas aeruginosa, UniProt Q9HT15); design: method as in PMID 37922420; conditions: previously determined; cited from earlier work
T1 construct: a whole operon plasmid that expresses; made in house; host or cells: Escherichia coli DK8 (K-12 strain lacking the unc operon) transformed with pASH20; used as inverted membrane vesicles, not purified

PA 9027 [4] = system: PA 9027; design: method as in PMID 37922420; conditions: cited from earlier work
[5] = system: PA electron transport chain; design: method as in PMID 37922420; conditions: previously determined; cited from earlier work
[6] = system: PΔ6 (efflux knockout strain of PA); design: method as in PMID 37922420; conditions: cited from earlier work
[7] = system: BAA 2108 (MDRPA clinical isolate); design: method as in PMID 37922420; conditions: cited from earlier work
[8] = system: PA electron transport chain; test: Electron transport activity (ACMA fluorescence quenching) in PA 9027 inverted membrane vesicles; assay type: biochemical, Pseudomonas aeruginosa; conditions: for PA ETC IC50: PA 9027 inverted membrane vesicles
Text: The assay for PA ATP synthase activity in EC DK8/pASH20 membrane vesicles requires a functional EC ETC, so potent inhibition of the EC ETC by any compound would interfere with the determination of its IC50 for PA ATP synthase. […] Furthermore, potent inhibition of PA ETC could be an alternative mechanism of action for the antibacterial activity of the current series.
(§1) Determination of electron transport activity. As previously described,11 inverted membrane vesicles from PA 9027 or E. coli DK8 pASH20 were added to HMK buffer containing 0.3 µg/mL 9-amino-6-chloro-2-methoxyacridine (ACMA) and 0-64 µg/mL test compound in DMSO. After measurement of baseline ACMA fluorescence for 60 s, redox-driven H+ pumping was initiated by addition of NADH to 0.8 mM, and fluorescence quenching was monitored for 120 s before addition of nigericin to 0.5 µg/mL. Relative activity is reported as the minimum fluorescence value normalized to the maximum fluorescence value following addition of nigericin.

PA ATP synthase [9] = biological target: T1, PA ATP synthase; test: Inhibition of NADH-driven PA ATP synthesis activity in DK8/pASH20 inverted membrane vesicles (end-point luciferin/luciferase assay); assay type: biochemical; conditions: for IC50: PA ATP synthase IC50 (absolute), NADH-driven ATP synthesis, EC DK8/pASH20 inverted membrane vesicles
[10] = system: EC electron transport chain; test: Electron transport activity (ACMA fluorescence quenching) in E. coli DK8 pASH20 inverted membrane vesicles; assay type: biochemical, Escherichia coli
Description: as §1

[11] = design: method as in earlier work; conditions: value of the C2 functional group; cited from earlier work
[12] = system: BAA 2109 (MDRPA clinical isolate); test: Antimicrobial susceptibility, broth microdilution MIC; assay type: cell-based, Pseudomonas aeruginosa; conditions: for MIC: Pseudomonas aeruginosa
Description: (§2) Pseudomonas aeruginosa (ATCC 9027), Drug-Resistant Pseudomonas aeruginosa from ATCC Panel MP-23 (BAA-2108, BAA-2109, BAA-2110), and Pseudomonas aeruginosa efflux knockout GKCW120 (PD6)14 provided by Zgurskaya and co-workers at the University of Oklahoma.
(§3) Antimicrobial Susceptibility Assay Procedure. Susceptibility testing was performed in biological triplicate, using the broth microdilution method as outlined by the Clinical and Laboratory Standards Institute. Briefly, minimum inhibitory concentrations (MIC) determinations were carried out in 96-well microtiter plates with 2-fold serial dilutions of the compounds from 0 […]
(§4) Briefly, to each well 1 µL of compound in DMSO, 89 µL of TSB, and 10 µL of bacterial inoculum, grown from frozen stock in 10 mL of TSB […]
(§5) for 4-6 hours, were added. […]
(§6) on a Biotek Synergy HTX Multi-mode plate reader. Data was processed by background subtracting the media absorbance and then normalizing the data to full bacterial growth with only vehicle.
(§7) MIC is defined as the lowest concentration of antibiotic or antibiotic/adjuvant combination that achieves ≥ 85% growth inhibition, which corresponds to no visible growth. […]

[13] = system: BAA 2110 (MDRPA clinical isolate); test: as above; assay type: cell-based, Pseudomonas aeruginosa; conditions: for MIC: Pseudomonas aeruginosa
Description: as §2, §3, §4, §5, §6, §7

[14] = system: BAA 2108 (MDRPA clinical isolate); test: as above; assay type: cell-based, Pseudomonas aeruginosa; conditions: for MIC: Pseudomonas aeruginosa
Description: as §2, §3, §4, §5, §6, §7

PA 9027 [15] = test: as above; assay type: cell-based; conditions: Pseudomonas aeruginosa, read-out: MIC PA 9027
Description: as §2, §3, §4, §5, §6, §7

[16] = system: PΔ6 (efflux knockout strain of PA); test: as above; assay type: cell-based; conditions: Pseudomonas aeruginosa, read-out: MIC PΔ6
Description: as §2, §3, §4, §5, §6, §7

[17] = Solubility in the assay medium; assay type: physicochemical; conditions: assay medium of the ATP synthesis inhibition assay; read-out: Solubility in the assay medium (poor/insoluble above this concentration)
[18] = BAA2109, >85% reduction in growth at OD 590 nm, n = 3, read-out: MIC BAA 2109
[19] = BAA2110, >85% reduction in growth at OD 590 nm, n = 3, read-out: MIC BAA 2110
[20] = BAA2108, >85% reduction in growth at OD 590 nm, n = 3, read-out: MIC BAA 2108
[21] = BAA2109, read-out: MIC BAA 2109
[22] = BAA2110, read-out: MIC BAA 2110
[23] = BAA2108, read-out: MIC BAA 2108
[24] = >85% reduction in growth at OD 590 nm, n = 3

Row | Compound | % PA ETC Inhibition at 32 µg/mL [8] | IC50 (PA ATP synthase [9]) | % EC ETC Inhibition at 4 µg/mL [10] | approximate pKa (NH+) of C2 side chain conjugate acid [11] | MIC (PA 9027 [15]) | MIC [16] | PA ETC IC50 [8] | also measured
1 | CSc1nc2ccccc2cc1CNCc1ccc(CN(C)C)cc1 [Compound 1] | – | – | – | – | – | – | – | MIC BAA 2110 [1]: >256 µg/mL; MIC BAA 2109 [2]: 256 µg/mL (≈ 728 µM); PA ATP synthase IC50 (PA ATP synthase [3]): 30 µg/mL; MIC PA 9027 (PA 9027 [4]): >256 µg/mL; PA ETC IC50 [5]: 29 µg/mL; MIC PΔ6 [6]: 64 to 128 µg/mL; MIC BAA 2108 [7]: 128 to 256 µg/mL
2 | CN(C)Cc1ccc(CNCc2cc3ccccc3nc2SCc2ccccc2)cc1 [Compound 2] | – | – | – | – | – | – | – | MIC BAA 2110 [1]: >128 µg/mL; MIC BAA 2109 [2]: >128 µg/mL; IC50 (PA ATP synthase [3]): ~4.68 µM; MIC PA 9027 (PA 9027 [4]): >128 µg/mL; PA ETC IC50 [5]: 27 µg/mL; MIC PΔ6 [6]: 16 µg/mL (≈ 37.4 µM); MIC BAA 2108 [7]: 64 µg/mL (≈ 150 µM)
3 | CSc1nc2ccccc2cc1CNCCCN(C)C [Compound 5] | 54% | 149 µM | 9% | – | – | – | – | –
4 | CN(C)CCCNCc1cc2ccccc2nc1SCc1ccccc1 [Compound 6] | – | 16.4 µM | 3% | above 6 | > 128 µg/mL | 16 µg/mL | 44 µg/mL | MIC [12, 18]: 64 µg/mL; MIC [13, 19]: 32 µg/mL; MIC [14, 20]: 64 µg/mL
5 | CSc1nc2ccccc2cc1CNCCCCN(C)C [Compound 7] | 72% | 224 µM | 6% | – | – | – | – | –
6 | CN(C)CCCCNCc1cc2ccccc2nc1SCc1ccccc1 [Compound 8] | – | 2.63 µM | 0% | > 6 | > 128 µg/mL | 16 µg/mL | 26 [26] μg/mL | MIC [12, 18]: 64 µg/mL; MIC [13, 19]: 32 µg/mL; MIC [14, 20]: 64 µg/mL
7 | CSc1nc2ccccc2cc1CNCCCCCN(C)C [Compound 9] | 74% | 59.8 µM | 22% | – | – | – | – | –
8 | CN(C)CCCCCNCc1cc2ccccc2nc1SCc1ccccc1 [Compound 10] | – | ~5.08 µM and 5.08 µM | 14% | above 6 | > 128 µg/mL | 64 µg/mL | 57 µg/mL | MIC [12, 18]: 128 µg/mL; MIC [13, 19]: 64 µg/mL; MIC [14, 20]: 64 µg/mL
9 | CSc1nc2ccccc2cc1CNCc1ccc(N(C)C)cc1 [Compound 11] | – | 14.8 µM | 4% | ∼5 | – | – | – | % PA ETC Inhibition at 4 µg/mL ([8]; 4 µg/mL): 20%
10 | CN(C)c1ccc(CNCc2cc3ccccc3nc2SCc2ccccc2)cc1 [Compound 12] | – | – | – | – | – | – | – | solubility [17]: ≤ 16 µg/mL; PA ETC inhibition (in words) [8]: displayed some PA and EC ETC; PA ATP synthase inhibition (in words) (PA ATP synthase [9]; <4 μg/mL, IC50 could not be determined): potent PA ATP synthase inhibition at low concentrations; EC ETC inhibition (in words) [10]: displayed some PA and EC ETC
11 | CCN1CCC(CCNCc2cc3ccccc3nc2SC)CC1 [Compound 13] | 74% | 114 µM | 20% | – | – | – | – | –
12 | CCN1CCC(CCNCc2cc3ccccc3nc2SCc2ccccc2)CC1 [Compound 14] | – | 2.38 µM | 16% | above 6 | > 128 µg/mL | 16 µg/mL | 26 [26] μg/mL | MIC [12, 21]: 64 µg/mL; MIC [13, 22]: 16 µg/mL; MIC [14, 23]: 32 µg/mL
13 | CSc1nc2ccccc2cc1CNCCC1CCN(C2CCCC2)CC1 [Compound 15] | – | 54.7 µM | 6% | – | – | – | 8.3 µg/mL | –
14 | c1ccc(CSc2nc3ccccc3cc2CNCCC2CCN(C3CCCC3)CC2)cc1 [Compound 16] | – | 2.18 µM | 9% | > 6 | > 128 µg/mL | 8 µg/mL | 14 [14] μg/mL | MIC [12, 21]: 64 µg/mL; MIC BAA 2110 [13, 24]: inactive; MIC [13, 22]: > 128 µg/mL; MIC [14, 23]: 32 µg/mL
15 | CSc1nc2ccccc2cc1CNCCc1cccn1C [Compound 17] | 65% | 16.1 µM | 0% | ∼0.5 | – | – | – | –
16 | Cn1cccc1CCNCc1cc2ccccc2nc1SCc1ccccc1 [Compound 18] | 62% | 12.9 µM and 10.3 µM | 5% | – | – | – | – | –
17 | CSc1nc2ccccc2cc1CNCCc1nc(C)cc(C)n1 [Compound 19] | – | 198 µM | 1.3% | ∼1 | – | – | – | % PA ETC Inhibition ([8]; concentration not given): 20%
18 | Cc1cc(C)nc(CCNCc2cc3ccccc3nc2SCc2ccccc2)n1 [Compound 20] | 67% | 7.24 µM | 17% | – | – | – | – | –
19 | CSc1nc2ccccc2cc1CNCCc1cnc[nH]1 [Compound 21] | – | 53.6 µM | 5% | ∼7 | – | – | 39 µg/mL | –
20 | c1ccc(CSc2nc3ccccc3cc2CNCCc2cnc[nH]2)cc1 [Compound 22] | – | ~5.34 µM and 5.34 µM | – | – | > 128 µg/mL | 16 µg/mL | 15 µg/mL | MIC BAA 2109 [12, 24]: displayed antibacterial activity; MIC [12, 18]: 64 µg/mL; MIC [13, 19]: > 128 µg/mL; MIC BAA 2108 [14, 24]: displayed antibacterial activity; MIC [14, 20]: 32 µg/mL; EC ETC IC50 ([10]; E. coli DK8 pASH20 inverted membrane vesicles): 14 µg/mL
21 | O=C(N[C@H](CO)[C@H](O)c1ccc([N+](=O)[O-])cc1)C(Cl)Cl [chloramphenicol, reference compound] | – | – | – | – | – | 4 µg/mL | – | MIC [12, 18]: 128 µg/mL; MIC [13, 19]: 128 µg/mL; MIC [14, 20]: 32 µg/mL; MIC (PA 9027 [15]; [24]): 128 µg/mL
22 | CNC(C)C1CCC(N)C(OC2C(N)CC(N)C(OC3OCC(C)(O)C(NC)C3O)C2O)O1 (stereo not shown) [gentamicin, reference compound] | – | – | – | – | 2 to 4 µg/mL | > 4 µg/mL | – | MIC [12, 18]: 2 µg/mL; MIC [13, 19]: 4 to 8 µg/mL; MIC [14, 20]: 16 µg/mL
